# Data published in ChEMBL document CHEMBL1155401, “The development of benzimidazoles as selective rho kinase inhibitors” (Bioorg Med Chem Lett, 2010).
# Experiments:
# [1] = Inhibition of PKA
# [2] = Selectivity ratio of IC50 for PKA to IC50 to ROCK
# [3] = Inhibition of ROCK by enzyme-coupled luciferase-kinase assay
# Cytochrome P450 1A2 = molecular target: T1, Cytochrome P450 1A2 (Homo sapiens, UniProt P05177); assay: Inhibition of CYP1A2; assay type: ADME
# T1 sequence (P05177 whole entry): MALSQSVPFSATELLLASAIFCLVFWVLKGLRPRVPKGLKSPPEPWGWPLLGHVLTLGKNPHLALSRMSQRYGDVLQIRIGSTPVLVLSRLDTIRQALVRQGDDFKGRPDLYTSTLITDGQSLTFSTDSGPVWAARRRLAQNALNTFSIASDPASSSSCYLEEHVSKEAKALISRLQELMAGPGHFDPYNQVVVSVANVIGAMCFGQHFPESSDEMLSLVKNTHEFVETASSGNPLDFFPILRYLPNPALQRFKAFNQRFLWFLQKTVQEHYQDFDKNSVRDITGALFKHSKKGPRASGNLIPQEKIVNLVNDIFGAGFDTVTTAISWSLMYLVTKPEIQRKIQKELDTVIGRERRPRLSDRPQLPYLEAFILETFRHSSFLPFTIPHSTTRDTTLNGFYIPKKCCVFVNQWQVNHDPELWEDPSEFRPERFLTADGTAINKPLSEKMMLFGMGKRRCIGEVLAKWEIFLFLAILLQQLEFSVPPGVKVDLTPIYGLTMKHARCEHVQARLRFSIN
# Cytochrome P450 2C9 = Cytochrome P450 2C9 (Homo sapiens, UniProt P11712); assay: Inhibition of CYP2C9; assay type: ADME
# Cytochrome P450 2D6 = Cytochrome P450 2D6 (Homo sapiens, UniProt P10635); assay: Inhibition of CYP2D6; assay type: ADME
# Cytochrome P450 3A4 = Cytochrome P450 3A4 (Homo sapiens, UniProt P08684); assay: Inhibition of CYP3A4; assay type: ADME
# Rattus norvegicus = assay: AUC in rat at 2 mg/kg, po; assay type: ADME, organism-based, Plasma; parameters: dose 2 mg/kg, route oral; settings: in vivo
# [4] = Clearance in rat at 2 mg/kg, po or 1 mg/kg, iv; assay type: ADME, organism-based; settings: in vivo
# [5] = Half life in rat at 2 mg/kg, po or 1 mg/kg, iv; assay type: ADME, organism-based; settings: in vivo
# [6] = Inhibition of ROCK by myosin light chain phosphorylation assay
# [7] = Volume of distribution at steady state in rat at 2 mg/kg, po or 1 mg/kg, iv; assay type: ADME, organism-based; settings: in vivo, read-out: Vdss
# [8] = Oral bioavailability in rat at 2 mg/kg; assay type: ADME, organism-based; settings: in vivo
# [9] = Cmax in rat at 2 mg/kg, po; assay type: ADME, organism-based; parameters: dose 2 mg/kg, route oral; settings: in vivo
# [10] = Half life in human liver microsomes; assay type: ADME, Microsome
# Chain of Cytochrome P450 3A4 (P08684 whole entry): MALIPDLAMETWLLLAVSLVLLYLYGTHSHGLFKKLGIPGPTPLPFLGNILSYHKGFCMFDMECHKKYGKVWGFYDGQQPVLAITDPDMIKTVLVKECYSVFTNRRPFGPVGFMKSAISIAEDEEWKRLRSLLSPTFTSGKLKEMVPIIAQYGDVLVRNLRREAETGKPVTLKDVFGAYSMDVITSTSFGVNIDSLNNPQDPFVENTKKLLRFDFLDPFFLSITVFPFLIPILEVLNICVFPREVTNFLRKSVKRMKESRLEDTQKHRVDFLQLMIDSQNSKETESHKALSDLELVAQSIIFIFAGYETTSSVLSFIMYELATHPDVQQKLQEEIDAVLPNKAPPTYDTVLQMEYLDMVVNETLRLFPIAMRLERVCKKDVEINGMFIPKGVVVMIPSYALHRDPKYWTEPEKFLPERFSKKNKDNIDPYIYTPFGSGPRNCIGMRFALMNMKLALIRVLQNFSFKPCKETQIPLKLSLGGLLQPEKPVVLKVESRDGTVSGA
# Chain of Cytochrome P450 2C9 (P11712 whole entry): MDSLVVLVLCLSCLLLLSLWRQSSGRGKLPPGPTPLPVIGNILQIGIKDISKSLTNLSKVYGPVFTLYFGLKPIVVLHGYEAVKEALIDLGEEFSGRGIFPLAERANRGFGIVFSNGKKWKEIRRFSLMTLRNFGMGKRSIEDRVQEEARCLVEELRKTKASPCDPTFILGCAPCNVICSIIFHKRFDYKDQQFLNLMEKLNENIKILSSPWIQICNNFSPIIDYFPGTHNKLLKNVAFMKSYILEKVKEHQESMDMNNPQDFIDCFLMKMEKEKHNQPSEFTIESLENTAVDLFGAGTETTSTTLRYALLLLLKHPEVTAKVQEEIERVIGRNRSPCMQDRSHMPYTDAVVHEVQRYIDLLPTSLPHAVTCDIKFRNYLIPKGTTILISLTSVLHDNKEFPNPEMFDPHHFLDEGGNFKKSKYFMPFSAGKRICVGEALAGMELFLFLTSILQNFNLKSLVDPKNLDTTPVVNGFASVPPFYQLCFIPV
# Chain of Cytochrome P450 2D6 (P10635 whole entry): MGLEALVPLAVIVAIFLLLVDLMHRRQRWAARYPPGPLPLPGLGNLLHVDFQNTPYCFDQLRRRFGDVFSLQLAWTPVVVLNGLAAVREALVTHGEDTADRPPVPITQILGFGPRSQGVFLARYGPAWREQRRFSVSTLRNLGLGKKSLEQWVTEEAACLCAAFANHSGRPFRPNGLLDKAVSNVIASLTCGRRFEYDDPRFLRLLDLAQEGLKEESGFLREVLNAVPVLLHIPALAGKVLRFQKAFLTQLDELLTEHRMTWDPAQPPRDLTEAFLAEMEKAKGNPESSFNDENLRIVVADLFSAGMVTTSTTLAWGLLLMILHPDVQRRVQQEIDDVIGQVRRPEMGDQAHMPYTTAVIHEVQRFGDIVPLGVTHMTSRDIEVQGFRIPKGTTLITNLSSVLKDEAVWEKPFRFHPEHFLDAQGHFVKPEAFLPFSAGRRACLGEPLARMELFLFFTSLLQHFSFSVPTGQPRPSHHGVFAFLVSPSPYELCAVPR
Structure (SMILES),IC50 [1],Ratio IC50 [2],IC50 [3],Activity (Cytochrome P450 1A2),Activity (Cytochrome P450 2C9),Activity (Cytochrome P450 2D6),Activity (Cytochrome P450 3A4),AUC (Rattus norvegicus),clearance [4],half-life [5],IC50 [6],Vd [7],bioavailability [8],Cmax [9],half-life [10]
Nc1nccc(-c2ccc3nc(C4COc5ccc(C(=O)NCc6cccnc6)cc5C4)[nH]c3c2)n1 (centres undefined),82 nM,105,0.78 nM,,,,,,,,,,,,
Cn1c(C2COc3ccccc3O2)nc2ccc(-c3ccncc3)cc21 (centres undefined),1960 nM,131,15 nM,Active,Active,Active,Active,,,,,,,,
CN(C)CCCNC(=O)c1ccc2c(c1)CC(c1nc3ccc(-c4ccnc(N)n4)cc3[nH]1)CO2 (centres undefined),272 nM,227,1.2 nM,,,,,0.01 µM·h,27 mL/min/kg,3 h,2700 nM,4.6 L/kg,< 1%,3 nM,1.67 h
COc1ccc2c(c1)CC(c1nc3c(OCCN(C)C)cc(-c4ccncc4)cc3[nH]1)CO2 (centres undefined),> 20000 nM,> 45,440 nM,Active,Active,Active,Active,,,,,,,,
Cc1c(-c2ccncc2)cc2[nH]c(C3COc4ccccc4O3)nc2c1C (centres undefined),> 20000 nM,,> 20000 nM,Active,Active,Active,Active,,,,,,,,
COc1ccc2c(c1)OCC(c1nc3ccc(-c4ccnc(N)n4)cc3[nH]1)C2 (centres undefined),435 nM,4.6,95 nM,,,,,,,,,,,,
COc1cccc2c1CC(c1nc3ccc(-c4ccnc(N)n4)cc3[nH]1)CO2 (centres undefined),310 nM,12,25 nM,,,,,,,,,,,,
c1ccc(Cn2c(C3COc4ccccc4O3)nc3ccc(-c4ccncc4)cc32)cc1 (centres undefined),1000 nM,5,190 nM,Active,Active,Active,Active,,,,,,,,
c1ccc2c(c1)OCC(c1nc3ccc(-c4ccncc4)cc3n1C1CCOCC1)O2 (centres undefined),509 nM,19,27 nM,Active,Active,Active,Active,,,,,,,,
Nc1nccc(-c2ccc3nc(C4COc5ccc(C(=O)NC6CCCCC6)cc5C4)[nH]c3c2)n1 (centres undefined),20 nM,18,1.1 nM,,,,,,,,,,,,
Cn1c(C2COc3ccccc3O2)nc2cc(-c3ccncc3)ccc21 (centres undefined),3130 nM,2,1780 nM,Active,Active,Active,Active,,,,,,,,
Nc1nccc(-c2ccc3nc(C4COc5ccccc5C4)[nH]c3c2)n1 (centres undefined),195 nM,24,8 nM,,,,,,,,,,,,
c1ccc(CCn2c(C3COc4ccccc4O3)nc3ccc(-c4ccncc4)cc32)cc1 (centres undefined),8810 nM,13,680 nM,Active,Active,Active,Active,,,,,,,,
CN(C)CCNC(=O)c1ccc2c(c1)CC(c1nc3ccc(-c4ccnc(N)n4)cc3[nH]1)CO2 (centres undefined),328 nM,219,1.5 nM,,,,,,,,,,,,
Nc1nccc(-c2ccc3nc(C4COc5ccc(C(=O)NCCO)cc5C4)[nH]c3c2)n1 (centres undefined),370 nM,132,2.8 nM,,,,,,,,,,,,
c1ccc2c(c1)OCC(c1nc3ccc(-c4ccncc4)cc3[nH]1)O2 (centres undefined),355 nM,47,7.5 nM,Active,Active,Active,Active,,,,,,,,

# Continued by falling IC50 [1], values first:
IC50 [1],Ratio IC50 [2],IC50 [3],Activity (Cytochrome P450 1A2),Activity (Cytochrome P450 2C9),Activity (Cytochrome P450 2D6),Activity (Cytochrome P450 3A4),AUC (Rattus norvegicus),clearance [4],half-life [5],IC50 [6],Vd [7],bioavailability [8],Cmax [9],half-life [10],Structure (SMILES)
6120 nM,47,130 nM,Active,Active,Active,Active,,,,,,,,,c1ccc2c(c1)OCC(c1nc3ccc(-c4ccncc4)cc3n1CCN1CCOCC1)O2 (centres undefined)
3080 nM,1,2970 nM,Active,Active,Active,Active,,,,,,,,,FC(F)(F)c1cc2nc(C3COc4ccccc4O3)[nH]c2cc1-c1ccncc1 (centres undefined)
1730 nM,13,129 nM,,,,,,,,,,,,,CN(C)C(=O)c1ccc2c(c1)CC(c1nc3ccc(-c4ccnc(N)n4)cc3[nH]1)CO2 (centres undefined)
1590 nM,9,183 nM,Active,Active,Active,Active,,,,,,,,,COc1ccc2c(c1)CC(c1nc3c(OCCCO)cc(-c4ccncc4)cc3[nH]1)CO2 (centres undefined)
1380 nM,6,240 nM,Active,Active,Active,Active,,,,,,,,,Cc1cc(-c2ccncc2)cc2[nH]c(C3COc4ccccc4O3)nc12 (centres undefined)
850 nM,35,24 nM,Active,Active,Active,Active,,,,,,,,,c1ccc2c(c1)OCC(c1nc3ccc(-c4ccncc4)cc3n1CC1CC1)O2 (centres undefined)
700 nM,412,1.7 nM,,,,,,,,,,,,,Nc1nccc(-c2ccc3nc(C4COc5ccc(C(=O)NCCc6ccccc6)cc5C4)[nH]c3c2)n1 (centres undefined)
485 nM,285,1.7 nM,,,,,1.9 µM·h,,,85 nM,,,,,COc1ccc2c(c1)CC(c1nc3ccc(-c4ccnc(N)n4)cc3[nH]1)CO2 (centres undefined)
442 nM,1770,0.25 nM,,,,,0.08 µM·h,58 mL/min/kg,3.6 h,250 nM,5.9 L/kg,6%,5 nM,0.025 h,Nc1nccc(-c2ccc3nc(C4COc5ccc(C(=O)NCCc6cccnc6)cc5C4)[nH]c3c2)n1 (centres undefined)
310 nM,28,11 nM,Active,Active,Active,Active,,,,,,,,,COCCn1c(C2COc3ccccc3O2)nc2ccc(-c3ccncc3)cc21 (centres undefined)
305 nM,709,0.43 nM,,,,,,,,,,,,,Nc1nccc(-c2ccc3nc(C4COc5ccc(C(=O)NCCc6ccccn6)cc5C4)[nH]c3c2)n1 (centres undefined)
252 nM,148,1.7 nM,Active,Active,Active,Active,,,,,,,,,c1ccc2c(c1)CC(c1nc3ccc(-c4ccncc4)cc3[nH]1)CO2 (centres undefined)
232 nM,0.9,256 nM,,,,,,,,,,,,,COc1cccc2c1OCC(c1nc3ccc(-c4ccnc(N)n4)cc3[nH]1)C2 (centres undefined)
187 nM,46,4.1 nM,Active,Active,Active,Active,,,,,,,,,COc1c(-c2ccncc2)ccc2nc(C3COc4ccccc4C3)[nH]c12 (centres undefined)
78 nM,78,< 1 nM,,,,,,,,,,,,,Nc1nccc(-c2ccc3nc(C4COc5ccc(C(=O)NCc6ccccc6)cc5C4)[nH]c3c2)n1 (centres undefined)
